Columns and labels:
Experiment in all cases: relative viability (nuclei count vs DMSO), 5 days (fraction); higher = more cells survive
Irinotecan + Foretinib = compound: CCc1c2c(nc3ccc(OC(=O)N4CCC(N5CCCCC5)CC4)cc13)-c1cc3c(c(=O)n1C2)COC(=O)[C@]3(O)CC [Irinotecan] + COc1cc2c(Oc3ccc(NC(=O)C4(C(=O)Nc5ccc(F)cc5)CC4)cc3F)ccnc2cc1OCCCN1CCOCC1 [Foretinib] (partner 0.25 µM)
How it was run: (§1)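 Relative viability was taken as the ratio of nuclei in treated wells to nuclei in vehicle wells. Lung cancer cell lines in 1536-well plates received compounds by pin tool one day after seeding, either one drug alone or a fixed anchor-drug dose plus five library-drug doses (not always all listed) in √10 steps. Nuclei were counted on 4× images after 5 days of treatment, and values are medians of duplicate plates.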

Irinotecan + Pemetrexed = compound: CCc1c2c(nc3ccc(OC(=O)N4CCC(N5CCCCC5)CC4)cc13)-c1cc3c(c(=O)n1C2)COC(=O)[C@]3(O)CC [Irinotecan] + Nc1nc2[nH]cc(CCc3ccc(C(=O)N[C@@H](CCC(=O)O)C(=O)O)cc3)c2c(=O)[nH]1 [Pemetrexed] (partner 0.2 µM)
How it was run: as §1

MK-8033 + Dasatinib = compound: Cn1cc(-c2cnc3ccc4ccc(CS(=O)(=O)NCc5ccccn5)cc4c(=O)c3c2)cn1 [MK-8033] + Cc1nc(Nc2ncc(C(=O)Nc3c(C)cccc3Cl)s2)cc(N2CCN(CCO)CC2)n1 [Dasatinib] (partner 0.075 µM)
How it was run: as §1

MK-8033 + Pemetrexed = compound: Cn1cc(-c2cnc3ccc4ccc(CS(=O)(=O)NCc5ccccn5)cc4c(=O)c3c2)cn1 [MK-8033] + Nc1nc2[nH]cc(CCc3ccc(C(=O)N[C@@H](CCC(=O)O)C(=O)O)cc3)c2c(=O)[nH]1 [Pemetrexed] (partner 0.2 µM)
How it was run: as §1

Cell Line | relative viability (Irinotecan + Foretinib; first compound 2 µM) | relative viability (Irinotecan + Foretinib; first compound 6.325 µM) | relative viability (Irinotecan + Foretinib; first compound 20 µM) | relative viability (Irinotecan + Pemetrexed; first compound 0.6325 µM) | relative viability (Irinotecan + Pemetrexed; first compound 2 µM) | relative viability (Irinotecan + Pemetrexed; first compound 6.325 µM) | relative viability (Irinotecan + Pemetrexed; first compound 20 µM) | relative viability (MK-8033 + Dasatinib; first compound 0.02 µM) | relative viability (MK-8033 + Dasatinib; first compound 0.06325 µM) | relative viability (MK-8033 + Dasatinib; first compound 0.2 µM) | relative viability (MK-8033 + Dasatinib; first compound 0.6325 µM) | relative viability (MK-8033 + Dasatinib; first compound 2 µM) | relative viability (MK-8033 + Pemetrexed; first compound 0.02 µM) | relative viability (MK-8033 + Pemetrexed; first compound 0.06325 µM) | relative viability (MK-8033 + Pemetrexed; first compound 0.2 µM) | relative viability (MK-8033 + Pemetrexed; first compound 0.6325 µM) | relative viability (MK-8033 + Pemetrexed; first compound 2 µM) | relative viability (Irinotecan + Foretinib; first compound 0.6325 µM)
201T | 0.991 | 0.53 | 0.151 | 0.274 | 0.308 | 0.271 | 0.283 | 0.646 | 0.62 | 0.573 | 0.533 | 0.614 | 0.306 | 0.348 | 0.301 | 0.291 | 0.312 | –
A549 | 0.611 | 0.122 | 0.0515 | – | – | – | – | – | – | – | – | – | – | – | – | – | – | 0.885
A-427 | 0.24 | 0.229 | 0.219 | 0.884 | 1 | 0.396 | 0.229 | 0.677 | 0.701 | 0.661 | 0.731 | 0.67 | 0.936 | 0.976 | 0.941 | 0.946 | 1.05 | –
ABC-1 | 0.617 | 0.28 | 0.152 | – | – | – | – | 0.735 | 0.434 | 0.501 | 0.491 | 0.61 | – | – | – | – | – | –
BEN | 0.613 | 0.206 | 0.324 | 0.535 | 0.828 | 0.415 | 0.485 | 0.343 | 0.289 | 0.318 | 0.326 | 0.307 | 0.924 | 0.694 | 0.752 | 0.765 | 0.758 | 0.328
CAL-12T | 0.924 | 0.398 | 0.293 | 1.14 | 0.995 | 0.355 | 0.234 | 0.478 | 0.3 | 0.405 | 0.367 | 0.456 | 1.26 | 1.18 | 1.12 | 1.35 | 1.18 | –
COR-L23 | 0.446 | 0.183 | 0.192 | 0.181 | 0.178 | 0.204 | 0.165 | 0.458 | 0.427 | 0.522 | 0.466 | 0.489 | 0.2 | 0.197 | 0.219 | 0.212 | 0.197 | 0.525
COR-L 105 | 0.8 | 0.682 | 0.524 | 1.35 | 0.93 | 0.649 | 0.442 | 0.368 | 0.303 | 0.328 | 0.335 | 0.402 | 1.22 | 0.744 | 1.14 | 1.12 | 1.05 | 1.11
Calu-6 | 0.429 | 0.168 | 0.087 | – | – | – | – | – | – | – | – | – | – | – | – | – | – | 0.605

Source: the supplement of paper PMC10307832
